{"source": "patent US20230228744A1", "about": "“DRY EYE DISEASE BIOMARKERS AND THEIR USE FOR TREATMENT” (Aldeyra Therapeutics, Inc., priority 2020, published 2023)", "tested_on": "4-hydroxynonenal protein adducts (HNE) in tears", "assay": "Phase 2/3 (TRANQUILITY) run-in cohort, ELISA of HNE-protein adducts in tears before and after dosing", "type": "in vivo, human", "settings": "single doses of 0.25% reproxalap, average of two doses (Day 1 first dose, Day 2 post chamber), n=9; vehicle: increase of 32 pg/mL (n=7)", "method": "[table] Tear RASP levels will be assessed via MMRM of change from pre to post dose on Day 1 and Day 2, with baseline (pre-dose) scores as a covariate, and dose and test article group as factors. Secondary Endpoints: • Visual analog scale eye dryness score assessed over 24 hours after first dose on Day 1, and over 90 minutes in CAE® (Key Secondary Symptom Endpoint) • Ora Calibra® Ocular Discomfort Scale assessed over 24 hours after first dose on Day 1, and over 90 minutes in CAE® • Ocular Discomfort & 4-Symptom Questionnaire assessed over 24 hours after first dose on Day 1, and before and after CAE® • Ora Calibra® Conjunctival Allergen Challenge Ocular Itching Scale assessed over 24 hours after first dose on Day 1, and before and after CAE® • Schirmer's Test change from baseline before and after the final dose on Day 1 • Change in tear RASP levels before and after Dose 1 and 2 on Day 1 and Dose 3 on Day 2. Conjunctival redness over 24 hours after first dose on Day 1. Visit 2 (Day 1, Baseline and In-Office Dosing) • Medical/Medication Update • Adverse Event Query • Visual Acuity (ETDRS) • Slit Lamp Biomicroscopy • Symptom Questionnaires • a. Ocular Discomfort & 4-Symptom Questionnaire • b. […] Ora Calibra® Conjunctival Allergen Challenge Ocular Itching Scale • Slit Lamp Biomicroscopy • Intraocular Pressure • Dilated Exam • Study Exit Data for the run-in cohort was obtained and analyzed. […]", "data": [{"smiles": "CC(C)(O)c1nc2ccc(Cl)cc2cc1N", "note": "[reproxalap, Reproxalap]", "values": [{"measurement": "average decline of HNE levels in tears, pre-dose to post-dose", "value": 1018, "unit": "pg/mL"}]}]}
